Patent US20070224150A1, “Growth factor for hair and skin treatment” (priority 2005, published 2007)

System: HACAT cells
Experiment: HACAT cell proliferation, MTT bioassay
Format: cell-based
Method: HACAT cells were seeded in 96 well plates and cultured for one day in DMEM medium with 10% FBS, then subjected to starvation for one day. After starvation, the cells were treated for three days with various dosages of EGF in serum free media. […] The ED50 was approximately 300 pg/ml.
HACAT cells were seeded in 96 well plates and cultured for one day in DMEM medium with 10% FBS, then subjected to starvation for one day. After starvation, the cells were treated for three days with various dosages of Anti-Aging Cytokine Complex AC (“AC ”), i.e. a mixture comprising EGF, bFGF, IGF-1 and TRX, in serum free media.
FIG. 3A depicts control cells, FIG. 3B cells treated with 0.5 ng/ml EGF, and FIG. 3C cells treated with 0.5 ng/ml of AC.

Substance: EGF: epidermal growth factor, composed of 53 amino acids
- ED50 (cell proliferation) (starved one day, treated three days in serum free media): approximately 300 pg/ml
- cell proliferation ratio versus untreated controls (three days, serum free media): higher cell proliferation ratios than the untreated controls
